Assay results: PubChem BioAssay AID248 (DTP/NCI, 2004)
Values joined by “and” are separate entries in the source; they are usually repeats but may differ in a detail not shown here. Equal entries are not always repeated. Toxic doses and inconclusive results are not listed. Rule as the data show it: active = T/C of 150% or more; inactive = T/C below 125%.

Test system: L1210 leukemia ip in BDF1 mice, survival T/C
Assay: NCI In Vivo Anticancer Drug Screen. Data for tumor model L1210 Leukemia (intraperitoneal) in B6D2F1 (BDF1) mice
Details: endpoint: mean survival time, higher = longer survival
Method in brief: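 Read-out is survival time, reported as the treated-group measurement over the vehicle-control measurement.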

[1] = dose: 100.0 mg/kg/injection, schedule: Q01DX001 (ip), vehicle: carboxymethylcellulose (CMC)
[2] = dose: 200.0 mg/kg/injection, schedule: Q01DX001 (ip), vehicle: carboxymethylcellulose (CMC)
[3] = dose: 400.0 mg/kg/injection, schedule: Q01DX001 (ip), vehicle: carboxymethylcellulose (CMC)
[4] = dose: 100.0 mg/kg/injection, schedule: Q01DX009 (ip), vehicle: saline
[5] = dose: 25.0 mg/kg/injection, schedule: Q01DX009 (ip), vehicle: saline
[6] = dose: 25.0 mg/kg/injection, schedule: Q04DX003 (ip), vehicle: saline
[7] = dose: 50.0 mg/kg/injection, schedule: Q01DX009 (ip), vehicle: saline
[8] = dose: 50.0 mg/kg/injection, schedule: Q04DX003 (ip), vehicle: saline
[9] = dose: 100.0 mg/kg/injection, schedule: Q04DX003 (ip), vehicle: saline
[10] = dose: 25.0 mg/kg/injection, schedule: Q04DX003 (ip), vehicle: water
[11] = dose: 50.0 mg/kg/injection, schedule: Q04DX003 (ip), vehicle: water
[12] = dose: 12.5 mg/kg/injection, schedule: Q01DX009 (ip), vehicle: saline
[13] = dose: 200.0 mg/kg/injection, schedule: Q01DX009 (ip), vehicle: saline
[14] = dose: 400.0 mg/kg/injection, schedule: Q01DX009 (ip), vehicle: saline
[15] = dose: 100.0 mg/kg/injection, schedule: Q04DX003 (ip), vehicle: saline with Tween-80
[16] = dose: 200.0 mg/kg/injection, schedule: Q04DX003 (ip), vehicle: saline with Tween-80
[17] = dose: 100.0 mg/kg/injection, schedule: Q04DX003 (ip), vehicle: Klucel (hydroxypropylcellulose) (HPC)
[18] = dose: 200.0 mg/kg/injection, schedule: Q04DX003 (ip), vehicle: Klucel (hydroxypropylcellulose) (HPC)
[19] = dose: 400.0 mg/kg/injection, schedule: Q04DX003 (ip), vehicle: Klucel (hydroxypropylcellulose) (HPC)

Measured: T/C

O=C(Nc1ccc([N+](=O)[O-])cc1)N(c1ccccn1)c1ccccn1
inactive: [1] 89 % of control | [2] 91 % of control | [3] 95 % of control

CC12CCC(Cl)(CC1)CC2=O
inactive: dose: 100.0 mg/kg/injection, schedule: Q04DX002 (ip), vehicle: saline 95 % of control | dose: 200.0 mg/kg/injection, schedule: Q04DX002 (ip), vehicle: saline 95 % of control | dose: 400.0 mg/kg/injection, schedule: Q04DX002 (ip), vehicle: saline 98 % of control

NC(=O)N/N=C(\CBr)c1ccc(Br)cc1
inactive: [4] 93 % of control

C=CCOCC(O)CN(C)C1CCCCC1 (stereo not given)
inactive: [5] 97 % of control | [6] 106 % of control | [7] 98 % of control | [8] 103 % of control | [4] 95 % of control | [9] 100 % of control and 104 % of control

CC(=O)OCCC/C(=C\c1c2ccccc2cc2ccccc12)[N+](=O)[O-]
inactive: [1] 94 % of control | [2] 94 % of control | [3] 96 % of control

CCCOC(=O)Nc1cccc2ccccc12
inactive: dose: 12.5 mg/kg/injection, schedule: Q04DX002 (ip), vehicle: Klucel (hydroxypropylcellulose) (HPC) 101 % of control | dose: 25.0 mg/kg/injection, schedule: Q04DX002 (ip), vehicle: Klucel (hydroxypropylcellulose) (HPC) 86 % of control | dose: 50.0 mg/kg/injection, schedule: Q04DX002 (ip), vehicle: Klucel (hydroxypropylcellulose) (HPC) 96 % of control | dose: 100.0 mg/kg/injection, schedule: Q04DX002 (ip), vehicle: Klucel (hydroxypropylcellulose) (HPC) 101 % of control

C[n+]1ccc(N2CCCCC2)c2ccc(Cl)cc21
inactive: dose: 2.0 mg/kg/injection, schedule: Q01DX001 (ip), vehicle: saline 111 % of control

CNc1nc(N)c(N=O)c(Nc2ccc(Br)cc2)n1
inactive: [1] 102 % of control | [2] 104 % of control | [3] 102 % of control

COC1=C(Cl)C(OC)(OC)C(Cl)=C1Cl
inactive: dose: 75.0 mg/kg/injection, schedule: Q01DX001 (ip), vehicle: carboxymethylcellulose (CMC) 107 % of control | dose: 150.0 mg/kg/injection, schedule: Q01DX001 (ip), vehicle: carboxymethylcellulose (CMC) 102 % of control | dose: 300.0 mg/kg/injection, schedule: Q01DX001 (ip), vehicle: carboxymethylcellulose (CMC) 104 % of control

O=S(=O)(ON=C1C=CC(=NOS(=O)(=O)c2ccccc2)C=C1)c1ccccc1
inactive: dose: 50.0 mg/kg/injection, schedule: Q01DX001 (ip), vehicle: saline 96 % of control | dose: 100.0 mg/kg/injection, schedule: Q01DX001 (ip), vehicle: saline 93 % of control | dose: 200.0 mg/kg/injection, schedule: Q01DX001 (ip), vehicle: saline 93 % of control | dose: 400.0 mg/kg/injection, schedule: Q01DX001 (ip), vehicle: saline 93 % of control

COc1ccc(/C=N/NC(=O)CNC(=O)Nc2cccc(Cl)c2)cc1
inactive: dose: 50.0 mg/kg/injection, schedule: Q01DX009 (ip), vehicle: saline with Tween-80 87 % of control

[Cl][Pt+2][Cl].c1ccc(C2CC[N-]CC2)cc1.c1ccc(C2CC[N-]CC2)cc1
inactive: dose: 6.25 mg/kg/injection, schedule: Q04DX003 (ip), vehicle: water 100 % of control | dose: 12.5 mg/kg/injection, schedule: Q04DX003 (ip), vehicle: water 100 % of control | [10] 105 % of control | [11] 102 % of control

CCOP(=O)(NN(C)C)OCC
inactive: [12] 107 % of control | dose: 12.5 mg/kg/injection, schedule: Q04DX003 (ip), vehicle: saline 96 % of control | [5] 104 % of control | [6] 104 % of control | [7] 102 % of control | [8] 107 % of control | [4] 102 % of control | [9] 101 % of control | [13] 95 % of control | dose: 200.0 mg/kg/injection, schedule: Q04DX003 (ip), vehicle: saline 106 % of control | [14] 112 % of control | dose: 400.0 mg/kg/injection, schedule: Q04DX003 (ip), vehicle: saline 96 % of control

O=C(O)/C=C/C(=O)Nc1ccc(I)cc1
inactive: dose: 50.0 mg/kg/injection, schedule: Q04DX003 (ip), vehicle: saline with Tween-80 104 % of control | [15] 104 % of control | [16] 104 % of control

NCCCn1c2ccccc2c2cnccc21
inactive: [12] 101 % of control | [5] 101 % of control | [10] 87 % of control | [7] 107 % of control | dose: 50.0 mg/kg/injection, schedule: Q01DX009 (ip), vehicle: water 104 % of control | [11] 92 % of control | dose: 100.0 mg/kg/injection, schedule: Q01DX009 (ip), vehicle: water 103 % of control | dose: 100.0 mg/kg/injection, schedule: Q04DX003 (ip), vehicle: water 104 % of control and 87 % of control

Cc1nc(N)[nH]c(=O)c1/C=C\C(=O)c1ccccc1
inactive: dose: 30.0 mg/kg/injection, schedule: Q01DX Z (ip), vehicle: carboxymethylcellulose (CMC) 96 % of control | dose: 60.0 mg/kg/injection, schedule: Q01DX Z (ip), vehicle: carboxymethylcellulose (CMC) 96 % of control | [1] 95 % of control | dose: 120.0 mg/kg/injection, schedule: Q01DX Z (ip), vehicle: carboxymethylcellulose (CMC) 87 % of control | [2] 89 % of control | dose: 240.0 mg/kg/injection, schedule: Q01DX Z (ip), vehicle: carboxymethylcellulose (CMC) 90 % of control | [3] 93 % of control

COc1cc(OC)c2cc1Cc1cc(c(OC)cc1OC)Cc1cc(c(OC)cc1OC)Cc1cc(c(OC)cc1OC)C2
inactive: [4] 94 % of control | [13] 86 % of control | [14] 86 % of control

O=C(NO)Oc1cccc2ccccc12
inactive: dose: 25.0 mg/kg/injection, schedule: Q04DX002 (ip), vehicle: saline with Tween-80 105 % of control | dose: 50.0 mg/kg/injection, schedule: Q04DX002 (ip), vehicle: saline with Tween-80 119 % of control | dose: 100.0 mg/kg/injection, schedule: Q04DX002 (ip), vehicle: saline with Tween-80 89 % of control

CC1CCCN(C)C1 (stereo not given)
inactive: dose: 100.0 mg/kg/injection, schedule: Q01DX009 (ip), vehicle: Klucel (hydroxypropylcellulose) (HPC) 100 % of control | [17] 100 % of control | [18] 100 % of control | [19] 93 % of control

CCn1c(CC(O)(C(F)(F)F)C(F)(F)F)nc2ccccc21
inactive: [15] 101 % of control | [16] 98 % of control | dose: 400.0 mg/kg/injection, schedule: Q04DX003 (ip), vehicle: saline with Tween-80 101 % of control

O=C(Oc1ccccc1)c1cc(Br)c2ccccc2c1O
inactive: dose: 100.0 mg/kg/injection, schedule: Q01DX009 (ip), vehicle: saline with Tween-80 96 % of control | [17] 89 % of control | dose: 200.0 mg/kg/injection, schedule: Q01DX009 (ip), vehicle: saline with Tween-80 95 % of control | [18] 97 % of control | dose: 400.0 mg/kg/injection, schedule: Q01DX009 (ip), vehicle: saline with Tween-80 93 % of control | [19] 87 % of control
